Laboratory results published in patent US9802899B2, “Heterocyclic compounds as pesticides” (BAYER CROPSCIENCE AG, priority 2012, dated 2017).

Test: Determination of the log P values by HPLC (formic acid method)
Assay type: physicochemical
Conditions: reversed-phase column (C 18), acidic range (pH 3.4), 55° C.; for chromatographic logP: reversed-phase HPLC column (C 18)
Procedure: 1) Description of Method for Determination of the Log P Values (Formic Acid Method)
Eluents for determination in the acidic range (pH 3.4):
Eluent A: acetonitrile+1 ml of formic acid/liter. Eluent B: water+0.9 ml of formic acid/liter.
The lambda max values were determined in the maxima of the chromatographic signals using the UV spectra from 200 nm to 400 nm.

log P	chromatographic logP	Compound
2.10	–	Cc1cc(C(=O)Nc2ccn(-c3c(F)cccc3F)n2)n(C)n1 [Compound I-1-232]
2.40	–	O=C(Nc1ccn(-c2c(F)cccc2F)n1)c1ncccc1Cl [Compound I-1-92]
2.93	–	CCCn1ncc(I)c1C(=O)Nc1ccn(-c2ncc(F)cc2F)n1 [Compound I-1-541]
2.16	–	Cn1cccc1C(=O)Nc1ccn(-c2ncc(F)cc2F)n1 [Compound I-1-647]
3.11	–	O=C(Nc1ccn(-c2c(F)cccc2F)n1)c1cc(Cl)ccc1C(F)(F)F [Compound I-1-329]
2.77	–	O=C(Nc1cnn(-c2cc(F)cnc2F)n1)c1ccccc1C(F)(F)F [Compound I-2-62]
3.01	–	O=C(Nc1ccn(-c2cccc(F)c2F)n1)c1ccccc1Cl [Compound I-1-189]
2.96	–	Cc1ccsc1C(=O)Nc1ccn(-c2ccccc2Cl)n1 [Compound I-1-46]
2.23	–	O=C(Nc1ccn(-c2ncccc2Br)n1)c1ccccc1Cl [Compound I-1-553]
1.77	–	O=C(Nc1ccn(-c2nccnc2F)n1)c1ncccc1C(F)(F)F [Compound I-1-178]
–	2.68	O=C(Nc1ccn(-c2nc(F)c(F)cc2F)n1)c1ccccc1Br [Compound I-1-164, 2-Bromo-N-[1-(3,5,6-trifluoropyridin-2-yl)-1H-pyrazol-3-yl]benzamide]
2.72	–	O=C(Nc1ccn(-c2c(F)cccc2F)n1)c1c(Cl)cccc1Cl [Compound I-1-267]
2.03	–	Cn1cc(C(=O)Nc2ccn(-c3c(F)cccc3F)n2)c(I)n1 [Compound I-1-108]
2.58	–	Cc1nc(C(F)(F)F)c(C(=O)Nc2ccn(-c3c(F)cccc3F)n2)s1 [Compound I-1-114]
2.19	–	O=C(Nc1ccn(-c2ccccc2Cl)n1)c1cnccc1Cl [Compound I-1-381]
2.45	–	Cc1snnc1C(=O)Nc1ccn(-c2c(F)cccc2F)n1 [Compound I-1-332]
–	1.38	Nc1cnn(-c2ncc(Cl)cc2Cl)n1 [2-(3,5-Dichloropyridin-2-yl)-2H-1,2,3-triazole-4-amine]
1.76	–	O=C(Nc1cnn(-c2ncccc2F)n1)c1cccnc1C(F)(F)F [Compound I-2-45]
–	2.32	Nc1nn(-c2ccccc2Cl)c2ccccc12 [1-(2-Chlorophenyl)-1H-indazole-3-amine]
–	0.49	Nc1ccn(-c2nccnc2F)n1 [1-(3-Fluoropyrazin-2-yl)-1H-pyrazole-3-amine]
2.57	–	N#Cc1cc(F)ccc1-n1ccc(NC(=O)c2ccccc2I)n1 [Compound I-1-634]
2.31	–	O=C(Nc1ccn(-c2ncc(F)cc2F)n1)C1=C(C(F)F)OCCS1 [Compound I-1-636]
2.44	–	O=C(Nc1cnn(-c2ncc(F)cc2F)n1)c1ccsc1I [Compound I-2-72]
2.13	–	CS(=O)(=O)c1ccccc1-n1ccc(NC(=O)c2ccccc2C(F)(F)F)n1 [Compound I-1-179]
2.80	–	Cc1cn(-c2ccccc2Cl)nc1NC(=O)c1ccccc1Cl [Compound I-1-360]

log P	chromatographic logP	Compound
2.00	–	O=C(Nc1ccn(-c2c(F)cccc2F)n1)c1cccnc1F [Compound I-1-279]
2.85	–	CCCn1cc(Cl)c(C(=O)Nc2ccn(-c3ncc(F)cc3F)n2)n1 [Compound I-1-533]
3.06	–	O=C(Nc1ccn(-c2ncc(Cl)cc2Cl)n1)c1ccccc1I [Compound I-1-433]
2.18	–	O=C(Nc1cnn(-c2ncccc2F)n1)c1ccccc1C(F)(F)F [Compound I-2-44]
–	1.74	Nc1cnn(-c2ncc(C(F)(F)F)cc2Cl)n1 [2-[3-Chloro-5-(trifluoromethyl)pyridin-2-yl]-2H-1,2,3-triazole-4-amine]
3.06	–	O=C(Nc1cnn(-c2ccccc2Br)n1)c1ccccc1I [Compound I-2-33]
2.36	–	O=C(Nc1ccn(-c2ncccc2F)n1)c1c(F)cccc1C(F)(F)F [Compound I-1-580]
2.61	–	O=C(Nc1ccn(-c2ccccc2[N+](=O)[O-])n1)c1ccccc1I [Compound I-1-419]
1.57	–	O=C(Nc1ccn(-c2ncccc2F)n1)c1cccnc1Br [Compound I-1-578]
2.35	–	Cc1nc(C(F)(F)F)c(C(=O)Nc2ccn(-c3ncc(F)cc3F)n2)s1 [Compound I-1-497]
–	1.58	Nc1ccn(-c2cc(F)ccc2F)n1 [1-(2,5-Difluorophenyl)-1H-pyrazole-3-amine]
2.45	–	Cc1cc(NC(=O)c2ccccc2Br)nn1-c1ccccc1Cl [Compound I-1-356]
3.41	–	O=C(Nc1ccn(-c2cccc(Cl)c2Cl)n1)c1ccccc1Br [Compound I-1-187]
2.67	–	O=C(Nc1nn(-c2ncccc2F)c2ccccc12)c1ccccc1Br [Compound I-5-4]
2.42	–	O=C(Nc1ccn(-c2ncccc2Br)n1)c1ccccc1I [Compound I-1-554]
1.80	–	O=C(Nc1ccn(-c2c(F)cccc2F)n1)c1ccc[n+]([O-])c1C(F)(F)F [Compound I-1-243]
3.25	–	O=C(Nc1ccn(-c2ccc(Cl)cc2Cl)n1)c1ccccc1C(F)(F)F [Compound I-1-198]
2.96	–	CN(C(=O)c1ccccc1C(F)(F)F)c1ccn(-c2ncc(F)cc2F)n1 [Compound I-1-467]
2.65	–	CCc1nccnc1C(=O)Nc1ccn(-c2c(F)cccc2F)n1 [Compound I-1-285]
3.23	–	CCN(C(=O)c1ccccc1C(F)(F)F)c1ccn(-c2ncc(F)cc2F)n1 [Compound I-1-468]
4.87	–	O=C(c1ccccc1C(F)(F)F)N(C(=O)c1ccccc1C(F)(F)F)c1nn(-c2ccccc2Br)nc1Cl [Compound I-2-27]
–	2.32	Nc1cc(F)c(-n2ccc(NC(=O)c3ccccc3C(F)(F)F)n2)c(F)c1 [Compound I-1-227, N-[1-(4-Amino-2,6-difluorophenyl)-1H-pyrazol-3-yl]-2-(trifluoromethyl)benzamide]
3.32	–	CCCc1c(Cl)c(C(=O)Nc2ccn(-c3c(F)cccc3F)n2)nn1C [Compound I-1-314]
2.56	–	O=C(Nc1ccn(-c2ncc(F)cc2F)n1)c1c(F)cccc1I [Compound I-1-492]
2.98	–	O=C(Nc1ccn(-c2ncc(F)cc2F)n1)c1ccccc1SC(F)(F)F [Compound I-1-149]

log P	chromatographic logP	Compound
2.38	–	Cc1ccsc1C(=O)Nc1ccn(-c2ncc(F)cc2F)n1 [Compound I-1-510]
–	2.27	O=C(Nc1ccn(-c2cccnc2Cl)n1)c1ccccc1I [Compound I-1-139, N-[1-(2-Chloropyridin-3-yl)-1H-pyrazol-3-yl]-2-iodobenzamide]
2.20	–	CC(=O)Nc1ccccc1C(=O)Nc1ccn(-c2c(F)cccc2F)n1 [Compound I-1-269]
–	2.7	O=C(Nc1nn(-c2ccccc2Cl)cc1F)c1ccccc1Cl [Compound I-1-27, 2-Chloro-N-[1-(2-chlorophenyl)-4-fluoro-1H-pyrazol-3-yl]benzamide]
2.85	–	Cc1nc(-n2ccc(NC(=O)c3ccccc3C(F)(F)F)n2)c(F)cc1F [Compound I-1-439]
2.61	–	O=C(Nc1nn(-c2ncc(F)cc2F)cc1Br)c1ccccc1C(F)(F)F [Compound I-1-474]
2.30	–	CC1=C(C(=O)Nc2ccn(-c3c(F)cccc3F)n2)CCCO1 [Compound I-1-333]
–	2.7	CC(=O)c1cc(F)c(-n2ccc(NC(=O)c3ccccc3C(F)(F)F)n2)c(F)c1 [Compound I-1-584, N-[1-(4-Acetyl-2,6-difluorophenyl)-1H-pyrazol-3-yl]-2-(trifluoromethyl)benzamide]
–	2.04	CCOc1c(F)cccc1-n1ccc(N)n1 [1-(2-ethoxy-3-fluorophenyl)-1H-pyrazole-3-amine]
2.53	–	O=C(Nc1ccn(-c2ncc(F)cc2F)n1)c1cccnc1OC(F)(F)F [Compound I-1-464]
1.51	–	Cn1cnnc1C(=O)Nc1ccn(-c2c(F)cccc2F)n1 [Compound I-1-328]
2.29	–	O=C(Nc1ccn(-c2ncc(Cl)cc2Cl)n1)c1cccnc1Br [Compound I-1-431]
2.45	–	O=C(Nc1ccn(-c2ncc(F)cc2F)n1)c1snnc1C1CC1 [Compound I-1-537]
–	2.94	N#Cc1cc(F)c(-n2ccc(NC(=O)c3ccccc3C(F)(F)F)n2)nc1Cl [Compound I-1-606, N-[1-(6-Chloro-5-cyano-3-fluoropyridin-2-yl)-1H-pyrazol-3-yl]-2-(trifluoromethyl)benzamide]
2.34	–	O=C(NC1=NN(c2c(F)cccc2F)CC1)c1ccccc1C(F)(F)F [Compound I-4-7]
3.12	–	O=C(Nc1nn(-c2ccccc2Cl)cc1Br)c1ccccc1I [Compound I-1-366]
2.09	–	Cc1nc(C)c(C(=O)Nc2ccn(-c3c(F)cccc3F)n2)s1 [Compound I-1-113]
2.76	–	Cn1nc(C(F)(F)F)c(C#N)c1C(=O)Nc1ccn(-c2ncc(F)cc2F)n1 [Compound I-1-536]
–	1.27	Nc1ccn(-c2ncc(Cl)cc2F)n1 [1-(5-Chloro-3-fluoropyridin-2-yl)-1H-pyrazole-3-amine]
3.09	–	CCCc1c(Cl)c(C(=O)Nc2ccn(-c3ncc(F)cc3F)n2)nn1C [Compound I-1-532]
–	3.76	CCN(CC)c1ccc(C#N)c(-n2ccc(NC(=O)c3ccccc3C(F)(F)F)n2)n1 [Compound I-1-568, N-{1-[3-Cyano-6-(diethylamino)pyridin-2-yl]-1H-pyrazol-3-yl}-2-(trifluoromethyl)benzamide]
3.58	–	CCc1cc(NC(=O)c2cccnc2C(F)(F)F)nn1-c1ccc(F)cc1F [Compound I-1-204]
–	1.56	Nc1ccn(-c2cccc(F)c2F)n1 [1-(2,3-Difluorophenyl)-1H-pyrazole-3-amine]
2.31	–	O=C(Nc1ccn(-c2ncccc2Br)n1)c1ccccc1Br [Compound I-1-552]
